Measurements as given in patent publication US3975399A, “1,5-Disubstituted-2-pyrrolidinones, -3-pyrrolin-2-ones, and -4-pyrrolin-2-ones” (E. I. Du Pont de Nemours and Company, priority 1974, dated 1976).
In brackets after ≈: the same amount, converted by molar mass.

Columns and labels:
bronchial smooth muscle = details: cited from earlier work
[1] = test system: croton oil-induced inflammation of mouse ears; test: Topical antiinflammatory activity against croton oil-induced inflammation of mouse ears; assay type: in vivo; details: 2-3 mg/ear
[2] = test system: adjuvant-induced arthritis in rats; test: Systemic antiinflammatory activity against adjuvant-induced arthritis in rats; assay type: in vivo, rat; details: intraperitoneal injection, 50 mg/kg
[3] = test system: croton oil-induced inflammation of rat ears; test: Topical antiinflammatory activity against croton oil-induced inflammation of rat ears; assay type: in vivo; details: 2-3 mg/ear
inflammation = test: Topical and injectable antiinflammatory activity (general statement); assay type: in vivo
[4] = test system: gastrin-induced gastric acid secretion; test: Gastrin-induced gastric acid secretion; details: in vivo
[5] = test system: histamine-induced bronchoconstriction; test: Histamine-induced bronchoconstriction; details: in vivo
[6] = test system: rat uterine smooth muscle; test: Contraction of rat uterine smooth muscle
[7] = test system: PGE1-induced smooth muscle contractions; test: Antagonism of PGE1-induced smooth muscle contractions; details: read-out: antagonizes PGE1-induced smooth muscle contractions, concentration for 50% inhibition

Row | SMILES | topical antiinflammatory activity [1] | systemic antiinflammatory activity [2] | topical antiinflammatory activity [3] | active as injectable antiinflammatory agent (inflammation) | active as topical antiinflammatory agent (inflammation) | also measured
1 | CCCCC[C@H](O)/C=C/[C@@H]1[C@@H](C/C=C\CCCC(=O)O)[C@@H](O)C[C@H]1O [PGF2 α] |  |  |  |  |  | contracting action (bronchial smooth muscle): contracting action
2 | CCCCCC(O)/C=C/C1CCC(=O)N1CCCCCCC(=O)O (stereo not drawn) [Compound 5, 7-[2-Oxo-5-(3-hydroxy-1-oct-1-enyl)-1-pyrrolidinyl]-heptanoic Acid] | has shown activity | has shown activity | has shown activity | active | active | activity in cutting off gastrin-induced gastric acid secretion [4]: has shown activity; activity as antagonist to histamine-induced bronchoconstriction [5]: has shown activity; contracts rat uterine smooth muscle (concentration) ([6]; in the same way as PGE1): 50 ng/mL
3 | CCCCC[C@H](O)/C=C/[C@H]1[C@H](O)CC(=O)[C@@H]1CCCCCCC(=O)O [PGE1, reference compound] |  |  |  |  |  | effect on the contracting action of PGF2α (bronchial smooth muscle): reverses or antagonizes; contraction of rat uterine smooth muscle (in words) ([6]; comparator for compound 5): contracts rat uterine smooth muscle
4 | CCCCCC(O)/C=C/C1CCC(=O)N1CCCCCCC(=O)OC(C)(C)C (stereo not drawn) [Compound 4, Tert-butyl 7-[2-Oxo-5-(3-hydroxy-1-oct-1-enyl)-1-pyrrolidinyl]heptanoate] | also active, though slightly less so | also active, though slightly less so | also active, though slightly less so | active | active | IC50 [7]: 10 µg/mL (≈ 25.3 µM); antagonism of the contracting action of compound 5 ([6]; rat uterine smooth muscle, compound 5-induced contraction): is antagonized in this action
